Values of other authors, collected in patent US5476644A, “Cyclic triamine chelating agents” (Sterling Winthrop Inc., priority 1994, dated 1995).

Details: background statement; cited from earlier work

[Gd] [free form of Gd, gadolinium]
toxicity of the free form: quite toxic
